# Laboratory results: patent publication US7803842B2, “Choline esters useful for the treatment of cognitive dysfunctions and enhancement of memory, learning and cognition” (priority 2004, dated 2010)
# “Also recorded” adds a separate entry of the source. Structures can show the parent of a compound that is named as a salt.
# Tests used:
# [1] = tested on: scopolamine impaired rats; test: Water maze hidden platform task in scopolamine impaired rats; type: in vivo, Long Evans rats; settings: for Hidden platform task performance (latency, swim path length) vs saline controls; reversal of scopolamine effect: donepezil 0.75 mg/kg p.o. daily with scopolamine 0.1 mg/kg i.p., test days 3 and 4, hydrochloride
# Experimental: (§1) Male Long-Evans rats (3 months of age) were administered either saline, donepezil (0.75 mg/kg), or PP-100 (3.0 mg/kg or 40.0 mg/kg) by oral gavage for 10 days prior to (and during the 5 days of) testing in a water maze task. The compounds were evaluated for their ability to reverse the amnestic effects of scopolamine (0.1 mg/kg) in this task.
# The animals were randomly assigned to one of 5 groups (n=10/group) and administered one daily dose of either of two doses of the choline derivative PP-100 (3 or 40 mg/kg), donepezil HCL (0.75 mg/kg), or vehicle (0.9% saline), via oral gavage (p.o.) beginning ten days prior to initiation of the water maze task. Daily dosing continued through the initial day of visible platform testing and the subsequent five days of water maze testing (i.e., on hidden platform test days as well as probe trial days). On both the single day of pre-testing (Visible Platform Test) as well as on each day of watermaze testing, thirty minutes prior to the first trial, 0.1 mg/kg of scopolamine hydrobromide was administered i.p. to four of the five groups (i.e., excluding the saline-saline group). Fifteen minutes after the scopolamine injection (or vehicle) each group was dosed with one of the test articles or vehicle (see Table 1 for an overview of the testing protocol). Test articles were prepared according to the supplied instructions, and aliquots of the solutions were stored (at −20° C.). Test agents were freshly thawed at the time of use.
# In order to test and compare the effects of PP-100 on both acquisition and recall of spatial memories, the water maze hidden platform task was utilized. […] Scopolamine is known to impair performance in the water maze task, and blockage of scopolamine effects is known to reduce impairment in the water maze (e.g., Terry et al., Drug Dev. Res., 47:97 (1999).
# The water maze experiment was performed in a circular pool (diameter=180 cm, height=76 cm) made of black plastic. The pool was filled with water to a depth of 35 cm and the water was maintained at 25.0±1.0° C. The pool was located in a large room with a number of extra-maze visual cues including geometric images (squares, triangles, circles etc.) hung on the wall, diffuse lighting, and black curtains used to hide the experimenter (visually) and the resting test subjects. Swimming activity of each rat was monitored via a television camera mounted overhead, which relayed information including latency to find the platform, total distance traveled, time and distance spent in each quadrant etc. to a video tracking system (Actimetrics, Evanston, Ill.).
# For the water maze test itself, the escape platform was submerged. […]
# [2] = tested on: scopolamine impaired rats; test: Water maze visible platform task (pre-test) in scopolamine impaired rats; type: in vivo, Long Evans rats; settings: scopolamine 0.1 mg/kg i.p.; hydrobromide
# Experimental: as §1
# The animals were randomly assigned to one of 5 groups (n=10/group) and administered one daily dose of either of two doses of the choline derivative PP-100 (3 or 40 mg/kg), donepezil HCL (0.75 mg/kg), or vehicle (0.9% saline), via oral gavage (p.o.) beginning ten days prior to initiation of the water maze task. Daily dosing continued through the initial day of visible platform testing and the subsequent five days of water maze testing (i.e., on hidden platform test days as well as probe trial days). […]
# The water maze experiment was performed in a circular pool (diameter=180 cm, height=76 cm) made of black plastic. […] Swimming activity of each rat was monitored via a television camera mounted overhead, which relayed information including latency to find the platform, total distance traveled, time and distance spent in each quadrant etc. to a video tracking system (Actimetrics, Evanston, Ill.). […]
SMILES,"Hidden platform task performance (latency, swim path length) vs saline controls; reversal of scopolamine effect [1]","Hidden platform task performance (latency, swim path length) vs saline controls; reversal of scopolamine effect ([1]; listed as Donepezil)","Hidden platform task performance vs saline controls ([1]; with scopolamine 0.1 mg/kg i.p., donepezil 0.75 mg/kg or PP-100 3 or 40 mg/kg p.o., test days 1 and 2)","Effect on learning in the hidden platform task (latency, swim distance) ([1]; scopolamine 0.1 mg/kg i.p. 30 minutes before first trial)",Effect on ability to locate a highly visible platform [2]
"COc1cc2c(cc1OC)C(=O)C(CC1CCN(Cc3ccccc3)CC1)C2 (racemic) [donepezil, (±)-2-[(1-benzyl-4-piperidyl)methyl]-5,6-dimethoxy-1-indanone hydrochloride]",did not differ (statistically) from saline controls,appeared to at least partially reverse the effects of scopolamine,generally performed less efficiently than saline controls,–,–
"CN1[C@@H]2C[C@@H](OC(=O)[C@H](CO)c3ccccc3)C[C@H]1[C@@H]1O[C@@H]12 [scopolamine, scopolamine hydrobromide]",–,–,–,impaired learning,tended to produce impairment; also recorded: led to some impairment
